The NIST ThermoML archive (doi:10.1016/j.fluid.2005.04.008)

Experiment: xn = mol fraction of the nth substance listed
Settings: Liquid

CCCCCCCCCC=CC=CC=CC=CC=CC=CC(=O)OCC [docosahexaenoic acid, ethyl ester] + O=C=O
Settings | mass density [kg/m3]
313 K, x2 = 0.5325 | 912.2
313 K, x2 = 0.6836 | 915.9
313 K, x2 = 0.7773 | 919.1
313 K, x2 = 0.849 | 920.8
313 K, x2 = 0.8795 | 921.3
313 K, x2 = 0.8972 | 922.1
313 K, x2 = 0.9121 | 923
313 K, x2 = 0.9222 | 923.7
313 K, x2 = 0.9266 | 923.8
313 K, x2 = 0.9335 | 924
313 K, x2 = 0.9366 | 923.9
313 K, x2 = 0.9392 | 924.1
313 K, x2 = 0.9443 | 921.9
333 K, x2 = 0.5583 | 894.9
333 K, x2 = 0.6793 | 896.5
333 K, x2 = 0.7551 | 898.4
333 K, x2 = 0.7811 | 899.5
333 K, x2 = 0.8154 | 900
333 K, x2 = 0.8278 | 900.5
333 K, x2 = 0.8411 | 900.7
333 K, x2 = 0.8612 | 900.8
333 K, x2 = 0.8784 | 901
333 K, x2 = 0.8918 | 901.4
333 K, x2 = 0.9022 | 901.3
333 K, x2 = 0.9114 | 900.5
333 K, x2 = 0.9221 | 899
333 K, x2 = 0.9419 | 887.6

CCCCCCCCCC=CC=CC=CC=CC=CC(=O)OCC [eicosapentaenoic acid, ethyl ester] + O=C=O
Settings | mass density [kg/m3]
313 K, x2 = 0.5962 | 907.6
313 K, x2 = 0.6865 | 911.9
313 K, x2 = 0.7582 | 915.2
313 K, x2 = 0.8265 | 916.8
313 K, x2 = 0.8496 | 916.3
313 K, x2 = 0.8708 | 916
313 K, x2 = 0.8826 | 916.1
313 K, x2 = 0.8921 | 916
313 K, x2 = 0.9008 | 915.5
313 K, x2 = 0.9091 | 915.2
313 K, x2 = 0.9184 | 913.7
313 K, x2 = 0.9264 | 912.3
313 K, x2 = 0.9402 | 906.6
333 K, x2 = 0.2842 | 886.2
333 K, x2 = 0.5005 | 888.6
333 K, x2 = 0.5996 | 890.9
333 K, x2 = 0.6826 | 892.9
333 K, x2 = 0.7423 | 894.3
333 K, x2 = 0.7876 | 895.3
333 K, x2 = 0.8186 | 895.6
333 K, x2 = 0.8338 | 895.5
333 K, x2 = 0.8541 | 895.1
333 K, x2 = 0.8766 | 894.8
333 K, x2 = 0.8927 | 894.1
333 K, x2 = 0.9043 | 892.8
333 K, x2 = 0.916 | 890.3
333 K, x2 = 0.9324 | 879.8

CCCCC/C=C\C/C=C\CCCCCCCC(=O)OC [methyl (Z,Z)-9,12-octadecadienate] + O=C=O
Settings | mass density [kg/m3]
313 K, x2 = 0.5217 | 879.7
313 K, x2 = 0.6288 | 881.5
313 K, x2 = 0.7185 | 884.5
313 K, x2 = 0.758 | 888.1
313 K, x2 = 0.8057 | 890.6
313 K, x2 = 0.8337 | 892.9
313 K, x2 = 0.8624 | 895.4
313 K, x2 = 0.8862 | 896.8
313 K, x2 = 0.8984 | 895.2
313 K, x2 = 0.9209 | 892.9
313 K, x2 = 0.9289 | 890.5
313 K, x2 = 0.9388 | 885.7
333 K, x2 = 0.6128 | 868.3
333 K, x2 = 0.7016 | 870.8
333 K, x2 = 0.791 | 872.8
333 K, x2 = 0.8255 | 874.1
333 K, x2 = 0.852 | 875
333 K, x2 = 0.8742 | 874.1
333 K, x2 = 0.8981 | 873.4
333 K, x2 = 0.9048 | 872.7
333 K, x2 = 0.9102 | 871.7
333 K, x2 = 0.9156 | 870.5
333 K, x2 = 0.9193 | 870
333 K, x2 = 0.9264 | 864.7
333 K, x2 = 0.934 | 860.3
333 K, x2 = 0.9509 | 838.1

CCCCCCCC/C=C\CCCCCCCC(=O)OC [methyl cis-9-octadecenoate] + O=C=O
Settings | mass density [kg/m3]
313 K, x2 = 0.4876 | 868.6
313 K, x2 = 0.5963 | 874.2
313 K, x2 = 0.7077 | 878.5
313 K, x2 = 0.7931 | 884.3
313 K, x2 = 0.833 | 885.5
313 K, x2 = 0.8595 | 887.5
313 K, x2 = 0.8736 | 887.5
313 K, x2 = 0.8891 | 886.9
313 K, x2 = 0.9111 | 886.4
313 K, x2 = 0.9231 | 885.1
313 K, x2 = 0.9312 | 882.7
313 K, x2 = 0.9387 | 881.2
333 K, x2 = 0.6086 | 857.1
333 K, x2 = 0.6969 | 859.9
333 K, x2 = 0.7916 | 862.3
333 K, x2 = 0.8255 | 864.4
333 K, x2 = 0.8509 | 865.8
333 K, x2 = 0.8813 | 867.4
333 K, x2 = 0.8901 | 864.5
333 K, x2 = 0.9072 | 864.9
333 K, x2 = 0.9167 | 863.2
333 K, x2 = 0.9213 | 863.1
333 K, x2 = 0.9282 | 859.2
333 K, x2 = 0.9341 | 858.9
333 K, x2 = 0.943 | 851.6
